Assays:
[1] = tested on: mouse elevated plus maze; experiment: Anxiolytic-like action, mouse elevated plus maze; assay type: in vivo; details: Example 13 at 10 mg/kg or more oral; diazepam 3 mg/kg oral
Description: In Parkinson's disease, psychiatric symptom (e.g. depression, anxiety) is known as one of its non-motor symptoms. The anxiolytic-like action of the present invention was evaluated with mouse elevated plus maze. The present test is broadly used as a method for evaluating the anxiolytic-like action of agents.
In the present test, male Crl: CD1 (ICR) mice (CHARLES RIVER LABORATORIES JAPAN, INC.) were used. One hour before the test was started, the solvent, the compound of Example 13 (3 mg/kg, 10 mg/kg, 30 mg/kg, or 100 mg/kg), or diazepam (3 mg/kg) which is a positive control was orally administered to the mouse. The mouse was put into a center platform in which the illuminance was adjusted to 80-100 Lux level. The head of the mouse was set toward the closed arm, and then the test was started. The mouse was allowed to explore freely for 5 minutes. When ⅓ of the mouse's body entered the arm, the behavior was counted as arm entry. And, the time spent in the open arm was also measured with a stopwatch. The ratio of the count of the open arm entry per the count of the all arm entry, and the ratio of the time spent in the open arm per the total exploration time (5 minutes) were calculated. […] Thus, the ratio of the count of the open arm entry per the count of the all arm entry, and the ratio of the time spent in the open arm per the total exploration time tend to be small values. When these ratios in the drug administration group are higher than those of the solvent administration group, it can be judged that the drug has anxiolytic-like action.

[2] = tested on: reserpine-induced Parkinson's disease model mouse; experiment: Potentiating effect of levodopa-induced hyperactivity in reserpine-induced Parkinson's disease model mouse; assay type: in vivo; details: Examples 12.5 or 25 mg/kg oral; rasagiline 3 or 10 mg/kg; with levodopa 200 mg/kg i.p.
Description: Dopamine-depleted mice due to reserpine treatment are model mice of akinesia symptoms in Parkinson's disease, said symptoms are relieved with levodopa (L-DOPA). The effect of the present compounds for potentiating the levodopa's effect was tested.
In the present test, male Crl: CD1 (ICR) mice (CHARLES RIVER LABORATORIES JAPAN, INC.) were used. 20-24 hours before starting the movement measurement, reserpine (3 mg/kg) was intraperitoneally administered to the mouse. One hour before starting the movement measurement, the present compound (12-.5 mg/kg or 25 mg/kg of. Examples 1, 2, 3, 4, and 5) was orally administered to the mouse. Shortly before starting the movement measurement, levodopa (200 mg/kg) with benserazide whose amount was ¼ of levodopa in free form was intraperitoneally administered to the mouse. The movement measurement was carried out for 90 minutes, and each total movement was compared.

[3] = target: human Cav3.1 (Homo sapiens (Human), UniProt O43497); experiment: T-type calcium channel inhibitory activity, whole-cell patch-clamp with HEK293 cell; assay type: cell-based; details: for inhibition at 600 µM: HEK293, 600 μmol/L, read-out: Cav3.1 % inhibitory rate
human Cav3.1, sequence (O43497 whole entry): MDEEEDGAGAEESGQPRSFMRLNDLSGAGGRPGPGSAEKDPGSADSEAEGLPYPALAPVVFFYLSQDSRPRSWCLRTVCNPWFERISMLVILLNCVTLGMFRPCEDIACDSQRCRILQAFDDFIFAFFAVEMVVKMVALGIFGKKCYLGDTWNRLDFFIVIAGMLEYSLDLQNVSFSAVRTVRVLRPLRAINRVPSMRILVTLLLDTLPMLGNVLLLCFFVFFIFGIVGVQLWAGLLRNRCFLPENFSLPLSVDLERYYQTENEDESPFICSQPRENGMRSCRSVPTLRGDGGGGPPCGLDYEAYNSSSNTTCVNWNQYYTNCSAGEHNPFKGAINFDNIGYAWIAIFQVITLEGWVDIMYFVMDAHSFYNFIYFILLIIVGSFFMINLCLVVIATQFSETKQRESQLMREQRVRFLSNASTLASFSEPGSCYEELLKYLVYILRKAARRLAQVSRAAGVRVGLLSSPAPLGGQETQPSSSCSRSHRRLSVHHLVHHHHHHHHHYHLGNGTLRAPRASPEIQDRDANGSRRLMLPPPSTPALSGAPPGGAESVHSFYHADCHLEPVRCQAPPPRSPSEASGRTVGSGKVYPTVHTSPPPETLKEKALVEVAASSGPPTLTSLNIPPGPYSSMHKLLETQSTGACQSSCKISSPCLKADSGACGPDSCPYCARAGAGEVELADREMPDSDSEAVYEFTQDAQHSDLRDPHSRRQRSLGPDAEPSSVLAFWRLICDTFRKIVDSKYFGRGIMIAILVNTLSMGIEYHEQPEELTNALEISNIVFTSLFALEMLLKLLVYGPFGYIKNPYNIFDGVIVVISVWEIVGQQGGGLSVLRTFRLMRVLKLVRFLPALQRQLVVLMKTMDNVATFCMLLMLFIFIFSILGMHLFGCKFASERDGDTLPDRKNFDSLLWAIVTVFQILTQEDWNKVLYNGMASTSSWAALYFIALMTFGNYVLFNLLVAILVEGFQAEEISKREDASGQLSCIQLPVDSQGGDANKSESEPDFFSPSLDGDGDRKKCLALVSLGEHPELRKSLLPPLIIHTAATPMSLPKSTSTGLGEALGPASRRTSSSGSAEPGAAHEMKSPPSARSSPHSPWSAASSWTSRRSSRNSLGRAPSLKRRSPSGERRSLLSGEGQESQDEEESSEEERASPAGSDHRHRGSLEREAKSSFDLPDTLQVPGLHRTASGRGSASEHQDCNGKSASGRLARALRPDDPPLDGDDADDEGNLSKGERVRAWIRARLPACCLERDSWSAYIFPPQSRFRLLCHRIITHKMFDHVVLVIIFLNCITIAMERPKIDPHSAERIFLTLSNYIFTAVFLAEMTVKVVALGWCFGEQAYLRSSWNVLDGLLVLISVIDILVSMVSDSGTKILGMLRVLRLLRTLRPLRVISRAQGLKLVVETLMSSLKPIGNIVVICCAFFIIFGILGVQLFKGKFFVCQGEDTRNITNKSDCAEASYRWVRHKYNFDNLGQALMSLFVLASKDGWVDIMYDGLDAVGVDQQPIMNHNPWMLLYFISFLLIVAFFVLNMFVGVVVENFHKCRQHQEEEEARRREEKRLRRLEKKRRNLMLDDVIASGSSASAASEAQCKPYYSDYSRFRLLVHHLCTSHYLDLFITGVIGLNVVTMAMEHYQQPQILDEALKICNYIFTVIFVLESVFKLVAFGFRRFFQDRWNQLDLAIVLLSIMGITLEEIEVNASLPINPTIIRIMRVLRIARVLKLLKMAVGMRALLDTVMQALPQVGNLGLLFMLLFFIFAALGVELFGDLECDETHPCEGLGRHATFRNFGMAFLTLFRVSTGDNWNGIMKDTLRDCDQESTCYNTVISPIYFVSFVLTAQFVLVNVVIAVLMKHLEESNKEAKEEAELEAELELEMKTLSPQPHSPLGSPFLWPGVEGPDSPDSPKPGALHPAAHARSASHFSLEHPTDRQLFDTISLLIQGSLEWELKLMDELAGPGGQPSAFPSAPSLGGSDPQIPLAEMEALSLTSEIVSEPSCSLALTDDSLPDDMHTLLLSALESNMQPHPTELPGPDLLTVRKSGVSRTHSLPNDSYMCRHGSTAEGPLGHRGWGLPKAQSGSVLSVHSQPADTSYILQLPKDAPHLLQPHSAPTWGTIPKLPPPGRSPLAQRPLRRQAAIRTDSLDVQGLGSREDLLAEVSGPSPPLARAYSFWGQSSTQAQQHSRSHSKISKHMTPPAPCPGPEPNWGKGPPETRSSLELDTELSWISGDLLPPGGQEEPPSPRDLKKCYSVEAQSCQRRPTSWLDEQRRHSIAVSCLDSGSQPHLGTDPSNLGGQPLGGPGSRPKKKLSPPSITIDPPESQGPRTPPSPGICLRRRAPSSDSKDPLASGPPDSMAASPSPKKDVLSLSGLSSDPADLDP
Description: (§1) The inhibitory activity of the present compounds for T-type calcium channel was measured by whole-cell patch-clamp method with HEK293 cell (vendor of HEK 293 cell: ATCC, Manassas, Va., USA, builder of expressing cell: ChanTest Corporation., Cleveland, Ohio, USA), in which human Cav3.1, human Cav3.2, or human Cav3.3 is expressed. The culture medium used for HEK293 cell was prepared by adding fetal bovine serum (10%), sodium penicillin G (100 U/mL), streptomycin sulfate (100 μg/mL), and G418 (500 μg/mL) to a mixture medium of Dulbecco's modified Eagle's medium/Ham's F-12 medium. The whole-cell current was evaluated with IonWorks Barracuda system and Population Patch Clamp (both are provided by Molecular Device Corporation, Union City, Calif., USA). The extracellular recording solution used during the recording was Hanks' balanced salt solution. The internal recording solution used herein was 50 mmol/L CsCl, 90 mmol/L CsF, 5 mmol/L MgCl2, 1 mmol/L glycol ether diamine tetraacetic acid (EGTA), and 10 mmol/L 4-(2-hydroxyethyl)piperazine-1-ethanesulfonic acid (HEPES (pH 7.2). The holding voltage was held at −90 mV, then changed to −65 mV. 60 seconds later, −20 mV pulse was added thereto for 200 millisecond to activate the channel on plasma membrane and generate calcium current. The calcium current was recorded with an amplifier of IonWorks Barracuda system, and analyzed with a program of the system (Version 2.0.2). The record of the calcium current was obtained twice, before and after the addition of the compound. In the measurement after adding the compound, the cells were exposed to the recording solution containing the compound for more than 5 minutes and then the current was measured. In the analyses, the ratio of current readout after the compound addition per current readout before the compound addition was calculated, the calculated value was subtracted from one, and the obtained value was converted to percentage. […] The value obtained from each compound was canonicalized based on the two ends of values to obtain each inhibitory rate. The positive control compound used herein was TTA-A2 which is known as T-type calcium channel inhibitor. IC50 value was calculated with Hill equation.
(§2) Each inhibitory rate (%) against T-type calcium channel at the evaluation concentration of the present compound (600 μmol/L) is shown in Table 12, in which the parenthesized values are IC50 values (μmol/L)) calculated from the dose-reactive test.

[4] = target: human Cav3.3 (Homo sapiens (Human), UniProt Q9P0X4); experiment: as above; assay type: cell-based; details: for inhibition at 600 µM: HEK293, 600 μmol/L, read-out: Cav3.3 % inhibitory rate
human Cav3.3, sequence (Q9P0X4 whole entry): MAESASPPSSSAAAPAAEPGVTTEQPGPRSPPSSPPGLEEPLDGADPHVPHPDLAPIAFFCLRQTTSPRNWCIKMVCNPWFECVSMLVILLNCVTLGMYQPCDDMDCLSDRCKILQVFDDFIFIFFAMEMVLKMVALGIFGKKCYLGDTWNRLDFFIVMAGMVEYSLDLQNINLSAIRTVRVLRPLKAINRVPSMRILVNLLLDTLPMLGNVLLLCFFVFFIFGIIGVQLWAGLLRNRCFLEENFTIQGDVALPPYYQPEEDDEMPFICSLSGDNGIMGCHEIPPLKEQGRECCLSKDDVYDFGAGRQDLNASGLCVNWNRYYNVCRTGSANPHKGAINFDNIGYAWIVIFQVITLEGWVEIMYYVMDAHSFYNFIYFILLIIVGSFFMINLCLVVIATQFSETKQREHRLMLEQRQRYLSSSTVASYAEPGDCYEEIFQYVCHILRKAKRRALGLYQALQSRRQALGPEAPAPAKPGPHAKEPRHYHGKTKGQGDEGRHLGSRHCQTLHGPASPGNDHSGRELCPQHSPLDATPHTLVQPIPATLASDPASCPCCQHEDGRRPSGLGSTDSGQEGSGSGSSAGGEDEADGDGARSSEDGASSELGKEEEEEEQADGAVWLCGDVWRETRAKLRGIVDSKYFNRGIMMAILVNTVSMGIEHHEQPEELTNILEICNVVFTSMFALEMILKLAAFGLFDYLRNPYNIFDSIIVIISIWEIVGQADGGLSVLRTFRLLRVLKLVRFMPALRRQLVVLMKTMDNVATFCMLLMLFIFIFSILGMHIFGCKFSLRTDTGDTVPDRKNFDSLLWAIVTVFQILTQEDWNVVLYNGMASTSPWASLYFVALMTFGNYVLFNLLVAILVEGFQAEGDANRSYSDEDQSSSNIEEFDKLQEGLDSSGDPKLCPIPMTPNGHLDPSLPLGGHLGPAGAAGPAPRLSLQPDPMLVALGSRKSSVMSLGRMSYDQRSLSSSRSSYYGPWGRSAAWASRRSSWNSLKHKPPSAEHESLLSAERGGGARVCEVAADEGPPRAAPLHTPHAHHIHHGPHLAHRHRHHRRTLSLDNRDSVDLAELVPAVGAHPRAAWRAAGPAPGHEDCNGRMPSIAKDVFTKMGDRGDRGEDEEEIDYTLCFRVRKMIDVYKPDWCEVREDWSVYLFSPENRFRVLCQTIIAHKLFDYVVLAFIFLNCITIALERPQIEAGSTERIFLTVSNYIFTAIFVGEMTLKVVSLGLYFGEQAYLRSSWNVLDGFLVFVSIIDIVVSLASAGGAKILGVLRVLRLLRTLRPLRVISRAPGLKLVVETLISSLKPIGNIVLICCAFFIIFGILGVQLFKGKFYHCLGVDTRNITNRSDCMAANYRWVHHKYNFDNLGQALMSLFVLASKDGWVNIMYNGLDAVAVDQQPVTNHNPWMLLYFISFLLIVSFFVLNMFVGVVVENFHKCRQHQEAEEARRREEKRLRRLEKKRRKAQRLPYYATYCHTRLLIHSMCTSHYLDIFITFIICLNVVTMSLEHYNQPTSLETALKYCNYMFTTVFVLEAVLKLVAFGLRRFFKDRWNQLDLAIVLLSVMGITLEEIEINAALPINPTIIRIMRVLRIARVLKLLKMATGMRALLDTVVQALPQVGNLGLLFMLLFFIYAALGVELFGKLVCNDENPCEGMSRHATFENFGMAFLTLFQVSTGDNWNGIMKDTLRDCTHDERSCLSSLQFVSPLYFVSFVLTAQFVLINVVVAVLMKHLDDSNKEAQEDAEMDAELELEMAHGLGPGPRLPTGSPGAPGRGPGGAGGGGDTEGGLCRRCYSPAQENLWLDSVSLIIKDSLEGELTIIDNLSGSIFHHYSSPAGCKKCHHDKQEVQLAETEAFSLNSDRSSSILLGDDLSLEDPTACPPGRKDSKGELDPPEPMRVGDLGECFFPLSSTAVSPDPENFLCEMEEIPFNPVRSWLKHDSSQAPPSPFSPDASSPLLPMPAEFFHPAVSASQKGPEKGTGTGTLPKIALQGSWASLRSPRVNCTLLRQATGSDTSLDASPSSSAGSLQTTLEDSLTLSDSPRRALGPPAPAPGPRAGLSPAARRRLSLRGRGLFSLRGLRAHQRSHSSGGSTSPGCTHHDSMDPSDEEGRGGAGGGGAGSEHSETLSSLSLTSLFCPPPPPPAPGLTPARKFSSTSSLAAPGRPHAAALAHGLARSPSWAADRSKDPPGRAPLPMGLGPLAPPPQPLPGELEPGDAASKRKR
Description: as §1, §2

[5] = target: human Cav3.2 (Homo sapiens (Human), UniProt O95180); experiment: as above; assay type: cell-based; details: for inhibition at 600 µM: HEK293, 600 μmol/L, read-out: Cav3.2 % inhibitory rate
Description: as §1, §2

[6] = target: Rat striatum MAOB (Rattus norvegicus (Rat), UniProt P19643); experiment: Activity for inhibiting monoamine oxidase B (MAOB); assay type: biochemical; details: [14C] β-PEA substrate; read-out: Rat striatum MAOB IC50
Rat striatum MAOB, sequence (P19643 whole entry): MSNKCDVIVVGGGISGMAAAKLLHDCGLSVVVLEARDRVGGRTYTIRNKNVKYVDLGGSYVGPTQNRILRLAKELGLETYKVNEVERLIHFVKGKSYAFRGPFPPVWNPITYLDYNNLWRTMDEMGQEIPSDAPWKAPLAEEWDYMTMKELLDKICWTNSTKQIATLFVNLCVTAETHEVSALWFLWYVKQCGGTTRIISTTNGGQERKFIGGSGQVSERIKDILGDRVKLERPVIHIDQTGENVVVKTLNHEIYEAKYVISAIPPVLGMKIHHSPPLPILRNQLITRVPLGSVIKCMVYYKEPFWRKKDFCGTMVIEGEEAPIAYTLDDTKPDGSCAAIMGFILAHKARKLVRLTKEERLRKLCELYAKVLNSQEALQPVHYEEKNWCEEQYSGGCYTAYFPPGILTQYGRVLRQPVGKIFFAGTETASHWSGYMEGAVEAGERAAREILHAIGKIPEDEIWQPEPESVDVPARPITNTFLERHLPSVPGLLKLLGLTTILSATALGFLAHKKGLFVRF
Description: MAOB is an enzyme involved in oxidative de-amino acid reaction of an endogenous monoamine neurotransmitter such as dopamine. […] The effect of the present compounds for inhibiting MAOB in rat striatum and simian striatum was tested.
Mitochondria⋅synaptosome fraction containing MAOB was prepared according to the following procedure. To striata of male Slc: Wistar rat (Japan SLC, Inc.) or male cynomolgus monkey (HAMRI CO., LTD.) was added 0.32 mol/L aqueous sucrose by 10 mL per 1 gram as wet weight of the tissue, and the mixture was homogenized. The homogenate was centrifuged at 4° C. at 1,000 g for 10 minutes, and the obtained supernatant was centrifuged again at 4° C. at 17,200 g for 20 minutes. To the obtained precipitate was added a prepared buffer solution (10 mmol/L Tris-HCl buffer solution (pH 7.4), 0.25 mol/L aqueous sucrose, 0.5 mmol/L EDTA-2K) by 10 mL per 1 gram as wet weight of the original tissue, and the mixture was centrifuged again at 4° C. at 17,200 g for 20 minutes. To the obtained precipitate was added the prepared buffer solution by 40 mL per 1 gram as wet weight of the original tissue. The mixture was suspended to be used as an enzyme homogenate solution.
As a substance to be degraded by MAOB, ^14C-labeled β-phenylethylamine ([^14C] β-PEA) was used. [^14C] β-PEA and the present compound solution diluted to each concentration were incubated with the enzyme homogenate solution at 37° C. for a given period, and then the reaction was stopped by adding 3 mol/L cold HCl thereto. The reaction product was extracted with a mixture of water-saturated toluene and ethyl acetate (1:1). The supernatant organic layer was separated, a liquid scintillation cocktail (ACSII, GE Healthcare) was added to the separated organic layer, and the radioactivity was measured with a liquid scintillation counter (TRI-CARB 3100TR, Packard). The IC50 value of each compound was determined based on two parameter logistic model with the inhibitory data of each concentration, said data were obtained from plural trials.

[7] = tested on: unilateral lesion model of nigrostriatal dopamine neuron induced with 6-OHDA; experiment: Extending duration of levodopa-induced rotational behavior in 6-OHDA unilateral lesion model; assay type: in vivo, rat; details: Examples 10 or 30 mg/kg oral; rasagiline 0.6 mg/kg; with levodopa 5 mg/kg i.p.
[8] = target: human CA-II (Homo sapiens (Human), UniProt P00918); experiment: Activity for inhibiting carbonic anhydrase (CA); assay type: biochemical; details: 4-nitrophenyl acetate substrate
Description: CA is a zinc metalloenzyme family which catalyzes reversible hydration between carbon dioxide, and bicarbonate and proton.
As a substance for decomposition by CA-II, 4-nitrophenyl acetate was used herein. 4-Nitrophenyl acetate is […] with CA-II to produce 4-nitrophenol. […] To the diluted solution were added […] (final concentration: 5 mmol/L) and the present compound of each concentration, and the mixture was incubated at 37° C. under shading for 30 minutes. […] The IC50 of the compound was obtained through the two-parameter logistic model with the inhibitory rate data in each concentration which was obtained from plural trials.

[9] = tested on: harmaline-induced essential tremor model; experiment: Anti-tremor effect in harmaline-induced essential tremor model; assay type: in vivo, mouse; details: Examples 1, 13: 25 or 50 mg/kg, Example 14: 3.125-25 mg/kg oral; β-propranolol 10 mg/kg i.p.
Description: As an animal model of essential tremor, an animal administrated with harmaline is broadly used in its evaluation test. […] The effect of the present compounds for harmaline-acute-administration-induced tremor was studied. To male Crl: CD1 mice (6-7 weeks old) (CHARLES RIVER LABORATORIES JAPAN, INC.), harmaline (30 mg/kg) was intraperitoneally administered to induce tremor. The present compound (Example 1 (25 mg/kg or 50 mg/kg), Example 13 (25 mg/kg or 50 mg/kg), or Example 14 (3.125 mg/kg, 6.25 mg/kg, 12.5 mg/kg, or 25 mg/kg)) was orally administered to the mouse one hour before the administration of harmaline. And, saline or β-propranolol (10 mg/kg) which is a positive control compound was intraperitoneally administered to the mouse 20 minutes before the administration of harmaline. 35 minutes before the administration of harmaline, the mouse was put into a measurement cage (an acrylic cylinder set in a horizontal direction, φ 65 mm, length 145 mm), one cage to one mouse, said measurement cage was in a soundproof box of a startle response instrument (O'hara & Co., Ltd., Tokyo). The trembling that the mouse gave were recorded over time as tremor data. The animal was put into cage, and the data were recorded for 20 minutes just before (PRE) and just after (POST) the administration of harmaline. The time-series signal data were analyzed about frequency with an analysis software, VitalTracer and BIMUTAS II-A (both, Kissei Comtech Co., Ltd., Matsumoto-shi). At 12-15 Hz or 12-18 Hz as a frequency which increases with tremor, the spectrum amounts were extracted, and the tremor intensity T of each subject was calculated according to the following formula. T=POST/PRE

SMILES	count of the open arm entry [1]	time spent in the open arm [1]	levodopa-induced hyperactivity (total movement, 90 minutes) [2]	inhibition at 600 µM [3] [%]	inhibition at 600 µM [4] [%]	inhibition at 600 µM [5] [%]	IC50 [6] [µM]	rotational number in the late phase (100-120 minutes) [7]	IC50 [8] [µM]	IC50 ([3]; dose-reactive test, read-out: Cav3.1 IC50 (parenthesized)) [µM]	IC50 ([4]; dose-reactive test, read-out: Cav3.3 IC50 (parenthesized)) [µM]	IC50 ([5]; dose-reactive test, read-out: Cav3.2 IC50 (parenthesized)) [µM]	harmaline-induced tremor intensity [9]
CN1C(=O)CN=C(c2ccccc2)c2cc(Cl)ccc21 [Diazepam, diazepam, reference compound]	increase significantly	increase significantly	–	–	–	–	–	–	–	–	–	–	–
NS(=O)(=O)C1(c2noc3ccccc23)CC1 [Example 5, 1-(1,2-benzoxazol-3-yl)cyclopropane-1-sulfonamide]	–	–	significantly-potentiating effect of levodopa-induced hyperactivity	64.5	55.6	54	> 600	did not show statistically-significant increase, but showed a tendency to increase the rotational number in the late phase	5.2	–	–	–	–
C[C@@H](c1noc2ccccc12)S(N)(=O)=O [Example 14, (1S)-1-(1,2-benzoxazol-3-yl)ethane-1-sulfonamide]	–	–	–	49.6	31.8	33.8	> 600	significantly increased the rotational number in the late phase	3.5	549	888	839	inhibited harmaline-induced tremor
CC(C)NCC(O)COc1cccc2ccccc12 (stereo not drawn) [β-Propranolol, β-propranolol, reference compound]	–	–	–	–	–	–	–	–	–	–	–	–	significantly inhibited harmaline-induced tremor

From US11535599B2, “Benzisoxazole derivative” (Sumitomo Pharma Co., Ltd., priority 2020, dated 2022)
